Measurements from ChEMBL document CHEMBL1201862, “PubChem BioAssay data set” (2004).
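Grown in 96-well plates, cells were treated for 48 hours with each compound at five concentrations. Insufficient inhibition: endpoint recorded as highest concentration tested. The concentration for 50% growth inhibition is given as GI50.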 Calls of active or inactive are those of the source. Rule as the data show it: active = GI50 up to about 1.1 µM and inactive = higher.

How the values were obtained:
Assay in all cases: NCI tumour cell line growth inhibition, 48 h
UO-31 = system: UO-31
IGROV-1 = system: IGROV-1
PC-3 = system: PC-3
SNB-19 = system: SNB-19
SK-MEL-2 = system: SK-MEL-2
NCI-H460 = system: NCI-H460
DU-145 = system: DU-145
NCI-H522 = system: NCI-H522
EKVX = system: EKVX
OVCAR-3 = system: OVCAR-3
HL-60 = system: HL-60
HCC 2998 = system: HCC 2998
NCI/ADR-RES = system: NCI/ADR-RES
A549 = system: A549
TK-10 = system: TK-10
Hs-578T = system: Hs-578T
786-0 = system: 786-0
Malme-3M = system: Malme-3M
BT-549 = system: BT-549
HT-29 = system: HT-29
SF-539 = system: SF-539
SNB-75 = system: SNB-75
OVCAR-5 = system: OVCAR-5
SF-268 = system: SF-268
SN12C = system: SN12C
LOX IMVI = system: LOX IMVI
SR = system: SR
SF-295 = system: SF-295
SW-620 = system: SW-620
ACHN = system: ACHN
HCT-15 = system: HCT-15
RXF 393 = system: RXF 393
OVCAR-4 = system: OVCAR-4
NCI-H226 = system: NCI-H226
HCT-116 = system: HCT-116
M14 = system: M14
MDA-MB-231 = system: MDA-MB-231
OVCAR-8 = system: OVCAR-8
UACC-257 = system: UACC-257
HOP-92 = system: HOP-92
KM12 = system: KM12
MCF7 = system: MCF7
COLO 205 = system: COLO 205
SK-MEL-28 = system: SK-MEL-28
A498 = system: A498
UACC-62 = system: UACC-62
SK-MEL-5 = system: SK-MEL-5
K562 = system: K562
CAKI-1 = system: CAKI-1
T47D = system: T47D
RPMI-8226 = system: RPMI-8226
SK-OV-3 = system: SK-OV-3
U-251 = system: U-251
MDA-MB-435 = system: MDA-MB-435
NCI-H23 = system: NCI-H23
HOP-62 = system: HOP-62
CCRF-CEM = system: CCRF-CEM
MOLT-4 = system: MOLT-4

CCc1[nH]c(=O)c2oc3cc4ccccc4cc3c2c1C(=O)O
GI50 (UO-31): > 10 µM (inactive) | GI50 (IGROV-1): 0.001 µM (active) | GI50 (PC-3): > 10 µM (inactive) | GI50 (SNB-19): > 10 µM (inactive) | GI50 (SK-MEL-2): > 10 µM (inactive) | GI50 (NCI-H460): > 10 µM (inactive) | GI50 (DU-145): 3.91 µM (inactive) | GI50 (NCI-H522): > 10 µM (inactive) | GI50 (EKVX): > 10 µM (inactive) | GI50 (OVCAR-3): > 10 µM (inactive) | GI50 (HL-60): > 10 µM (inactive) | GI50 (HCC 2998): > 10 µM (inactive) | GI50 (NCI/ADR-RES): > 10 µM (inactive) | GI50 (A549): > 10 µM (inactive) | GI50 (TK-10): > 10 µM (inactive) | GI50 (Hs-578T): > 10 µM (inactive) | GI50 (786-0): > 10 µM (inactive) | GI50 (Malme-3M): > 10 µM (inactive) | GI50 (BT-549): > 10 µM (inactive) | GI50 (HT-29): > 10 µM (inactive) | GI50 (SF-539): > 10 µM (inactive) | GI50 (SNB-75): > 10 µM (inactive) | GI50 (OVCAR-5): > 10 µM (inactive) | GI50 (SF-268): > 10 µM (inactive) | GI50 (SN12C): > 10 µM (inactive) | GI50 (LOX IMVI): > 10 µM (inactive) | GI50 (SR): > 10 µM (inactive) | GI50 (SF-295): > 10 µM (inactive) | GI50 (SW-620): > 10 µM (inactive) | GI50 (ACHN): > 10 µM (inactive) | GI50 (HCT-15): > 10 µM | GI50 (RXF 393): > 10 µM (inactive) | GI50 (OVCAR-4): > 10 µM (inactive) | GI50 (NCI-H226): > 10 µM (inactive) | GI50 (HCT-116): > 10 µM (inactive) | GI50 (M14): > 10 µM (inactive) | GI50 (MDA-MB-231): 0.00588 µM (active) | GI50 (OVCAR-8): > 10 µM (inactive) | GI50 (UACC-257): > 10 µM (inactive) | GI50 (HOP-92): > 10 µM (inactive) | GI50 (KM12): > 10 µM (inactive)

Cc1nc(Nc2ccc(F)cc2)c2sc(=S)n(-c3ccc(F)cc3)c2n1
GI50 (UO-31): 16.5 µM (inactive) | GI50 (IGROV-1): 10.6 µM (inactive) | GI50 (MCF7): 5.5 µM (inactive) | GI50 (PC-3): 20.1 µM (inactive) | GI50 (SNB-19): 14.7 µM (inactive) | GI50 (COLO 205): 14.5 µM (inactive) | GI50 (SK-MEL-2): 15.3 µM (inactive) | GI50 (NCI-H460): 15.5 µM (inactive) | GI50 (DU-145): 13.4 µM (inactive) | GI50 (NCI-H522): 16.1 µM (inactive) | GI50 (EKVX): 13.1 µM (inactive) | GI50 (OVCAR-3): 17.1 µM (inactive) | GI50 (HL-60): 23.6 µM (inactive) | GI50 (SK-MEL-28): 14.7 µM (inactive) | GI50 (HCC 2998): 12.2 µM (inactive) | GI50 (A498): 16 µM (inactive) | GI50 (NCI/ADR-RES): 17.1 µM (inactive) | GI50 (A549): 16 µM (inactive) | GI50 (TK-10): 14.5 µM (inactive) | GI50 (Hs-578T): 14.5 µM (inactive) | GI50 (786-0): 10 µM (inactive) | GI50 (UACC-62): 16.1 µM (inactive) | GI50 (Malme-3M): 14.6 µM (inactive) | GI50 (SK-MEL-5): 14.6 µM (inactive) | GI50 (BT-549): 13.3 µM (inactive) | GI50 (K562): 33.2 µM (inactive) | GI50 (CAKI-1): 18.3 µM (inactive) | GI50 (HT-29): 6.17 µM (inactive) | GI50 (T47D): 5.31 µM (inactive) | GI50 (SNB-75): 16.1 µM (inactive) | GI50 (RPMI-8226): 5.01 µM (inactive) | GI50 (SK-OV-3): 19.4 µM (inactive) | GI50 (OVCAR-5): 17.9 µM (inactive) | GI50 (SF-268): 11 µM (inactive) | GI50 (SN12C): 14 µM (inactive) | GI50 (LOX IMVI): 4.99 µM (inactive) | GI50 (SR): 3.27 µM (inactive) | GI50 (SF-295): 14.3 µM (inactive) | GI50 (U-251): 14.7 µM (inactive) | GI50 (SW-620): 9.77 µM (inactive) | GI50 (ACHN): 13.7 µM (inactive) | GI50 (HCT-15): 3.09 µM | GI50 (MDA-MB-435): 10.8 µM (inactive) | GI50 (RXF 393): 12.6 µM (inactive) | GI50 (OVCAR-4): 15.5 µM (inactive) | GI50 (NCI-H23): 4.24 µM (inactive) | GI50 (NCI-H226): 16.1 µM (inactive) | GI50 (HCT-116): 3.74 µM (inactive) | GI50 (M14): 2.94 µM (inactive) | GI50 (MDA-MB-231): 13.9 µM (inactive) | GI50 (HOP-62): 11.8 µM (inactive) | GI50 (OVCAR-8): 15.6 µM (inactive) | GI50 (UACC-257): 13.4 µM (inactive) | GI50 (KM12): 15 µM (inactive)

COC(=O)c1cnc(Cl)cn1
GI50 (UO-31): 20.2 µM (inactive) | GI50 (IGROV-1): 29.4 µM (inactive) | GI50 (MCF7): 38.4 µM (inactive) | GI50 (PC-3): 13.6 µM (inactive) | GI50 (SNB-19): > 100 µM (inactive) | GI50 (COLO 205): > 100 µM (inactive) | GI50 (SK-MEL-2): 48 µM (inactive) | GI50 (NCI-H460): > 100 µM (inactive) | GI50 (DU-145): > 100 µM (inactive) | GI50 (NCI-H522): 2.49 µM (inactive) | GI50 (EKVX): 33.3 µM (inactive) | GI50 (HL-60): 32.7 µM (inactive) | GI50 (SK-MEL-28): 53.3 µM (inactive) | GI50 (NCI/ADR-RES): 45.6 µM (inactive) | GI50 (A549): > 100 µM (inactive) | GI50 (TK-10): > 100 µM (inactive) | GI50 (Hs-578T): 50.6 µM (inactive) | GI50 (786-0): > 100 µM (inactive) | GI50 (UACC-62): 33 µM (inactive) | GI50 (Malme-3M): 50.2 µM (inactive) | GI50 (SK-MEL-5): 59.2 µM (inactive) | GI50 (BT-549): 37 µM (inactive) | GI50 (K562): 40.1 µM (inactive) | GI50 (CAKI-1): 17.5 µM (inactive) | GI50 (HT-29): 54.3 µM (inactive) | GI50 (SF-539): 74.3 µM (inactive) | GI50 (T47D): 40.3 µM (inactive) | GI50 (SNB-75): 90.4 µM (inactive) | GI50 (RPMI-8226): 21 µM (inactive) | GI50 (SK-OV-3): > 100 µM (inactive) | GI50 (OVCAR-5): 58.3 µM (inactive) | GI50 (CCRF-CEM): 35.9 µM (inactive) | GI50 (SF-268): 49 µM (inactive) | GI50 (SN12C): 30.5 µM (inactive) | GI50 (LOX IMVI): 33.4 µM (inactive) | GI50 (SR): 42.5 µM (inactive) | GI50 (SF-295): > 100 µM (inactive) | GI50 (U-251): 34.9 µM (inactive) | GI50 (SW-620): 63.7 µM (inactive) | GI50 (ACHN): 71 µM (inactive) | GI50 (HCT-15): 17.3 µM | GI50 (MDA-MB-435): 48.4 µM (inactive) | GI50 (OVCAR-4): 20.2 µM (inactive) | GI50 (NCI-H23): 20.1 µM (inactive) | GI50 (NCI-H226): 35.2 µM (inactive) | GI50 (HCT-116): 38.2 µM (inactive) | GI50 (M14): 53.8 µM (inactive) | GI50 (MDA-MB-231): 71.8 µM (inactive) | GI50 (HOP-62): > 100 µM (inactive) | GI50 (OVCAR-8): 73.5 µM (inactive) | GI50 (UACC-257): 57.9 µM (inactive) | GI50 (HOP-92): 28.4 µM (inactive) | GI50 (KM12): 24.9 µM (inactive) | GI50 (MOLT-4): 41.4 µM (inactive)
